Experimental data reported in PubChem BioAssay AID732 (Emory University Molecular Libraries Screening Center, 2007).
Calls of active or inactive are those of the source. No rule for the calls is given here.

tested on: in vivo angiogenesis, blood vessel count; experiment: angiogenesis inhibition in living animals, in vivo study, HTS (AID 732); conditions: active compounds read low;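 tested at 30 µM in the well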;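 also: zebrafish embryos dosed at one day post fertilization; 0% = reference inhibitor and 100% = plate mean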

Compound | vessel count % control
O=[N+]([O-])c1ccc(O[C@@H]2O[C@H](CO)[C@@H](O)[C@H](O)[C@H]2F)c([N+](=O)[O-])c1 | 99.2% (inactive)
COc1c2c(nc3ccccc13)OC(C(C)(O)CO)C2 (stereo not given) | 120% (inactive)
O=C(CCc1ccc(O)cc1)c1c(O)cc(O)cc1O | 124% (inactive)
COC(=O)C1=C(C)NC(C)=C(C(=O)OCCN(C)Cc2ccccc2)C1c1cccc([N+](=O)[O-])c1 (stereo not given) | 65.5% (inactive)
COc1ccc(NC(=O)/C=C/c2ccc(Cl)cc2)cc1 | 106% (inactive)
CCCN1CCC[C@@H](c2cccc(O)c2)C1 | 91.2% (inactive)
NCC(O)c1cc(O)c(O)cc1F (stereo not given) | 87.4% (inactive)
CC(CCc1ccccc1)NC(C)C(O)c1ccc(O)cc1 (stereo not given) | 98.4% (inactive)
c1ccc([C@H]2CN3CCSC3=N2)cc1 | 98.4% (inactive)
COC(=O)c1c(-c2cc(OC)c(OC)c(OC)c2)c2ccnc(OCc3ncccn3)c2c(=O)n1Cc1ccnc(C)c1 | 99.4% (inactive)
c1ccc2nc(N3CCNCC3)ccc2c1 | 98% (inactive)
N[C@@H](COP(=O)(O)O)C(=O)O | 105% (inactive)
C=CCN1CCc2c(cc(O)c(O)c2Br)[C@@H](c2ccccc2)C1 | 85% (inactive)
NC(N)=NC(N)=Nc1cccc(Cl)c1 | 103% (inactive)
Cc1ccc(=O)n(-c2ccccc2)c1 | 92.7% (inactive)
Ic1ccccc1CNC1C2CCN(CC2)C1C(c1ccccc1)c1ccccc1 (stereo not given) | 103% (inactive)
CCCN(CCC)C(=O)Cc1c(-c2ccc(Cl)cc2)nc2c(Cl)cc(Cl)cn12 | 89.9% (inactive)
CC(C)Cc1ccc(C(C)C(=O)O)cc1 (stereo not given) | 138% (inactive)
CC1CCN(CC[C@H]2CCCN2S(=O)(=O)c2cccc(O)c2)CC1 | 95.5% (inactive)
Cc1nc(N=Nc2ccc(C(=O)O)cc2)c(COP(=O)(O)O)c(C=O)c1O | 93.9% (inactive)
CC1=NS(=O)(=O)c2cc(Cl)ccc2N1 | 116% (inactive)
COC(=O)[C@H]1[C@H]2C[C@@H]3c4[nH]c5cc(OC)ccc5c4CCN3C[C@H]2C[C@@H](OC(=O)c2cc(OC)c(OC)c(OC)c2)[C@@H]1OC | 75.8% (inactive)
Oc1[nH]c2c(Cl)cc(Cl)cc2c1C1=Nc2ccc(Br)cc2/C1=N\OCCN1CCCC1 | 93.4% (inactive)
Cn1c(=O)c2[nH]cnc2n(C)c1=O | 105% (inactive)
Oc1ccc2c3c1O[C@H]1c4[nH]c5c(c4C[C@@]4(O)[C@@H](C2)N(CC2CC2)CC[C@]314)C[C@@]1(O)[C@H]2Cc3ccc(O)c4c3[C@@]1(CCN2CC1CC1)[C@H]5O4 | 81.2% (inactive)

Compound | vessel count % control
CN(C)CCOC(C)(c1ccccc1)c1ccccn1 (stereo not given) | 95.7% (inactive)
C=C(C)[C@H]1CN[C@H](C(=O)O)[C@H]1CC(=O)O | 123% (inactive)
NC(Cc1ccc(N(CCCl)CCCl)cc1)C(=O)O (stereo not given) | 123% (inactive)
Fc1ccc(C(OCCCc2cnc[nH]2)c2ccc(F)cc2)cc1 | 89.2% (inactive)
COc1ccc2c(c[n+](C)c3c4cc5c(cc4ccc23)OCO5)c1OC | 124% (inactive)
OC[C@H]1O[C@@H](n2cnc3c(N[C@H]4CC5CCC4C5)ncnc32)[C@H](O)[C@@H]1O (stereo not given in full) | 77.1% (inactive)
NO | 93.7% (inactive)
Nc1ccc(N2C(=O)c3ccccc3C2=O)c(Cl)c1 | 78.4% (inactive)
Cc1cccc2c(-c3[nH]c4ccccc4c3N=O)c(O)[nH]c12 | 25.1%
N=S(=O)(O)Cc1noc2ccccc12 | 88.2% (inactive)
CNCCC(Oc1ccc(C(F)(F)F)cc1)c1ccccc1 (stereo not given) | 74.2% (inactive)
N[C@@H](Cc1c[nH]c2ccc(O)cc12)C(=O)O | 81.8% (inactive)
CN1CCN(CC(=O)N2c3ccccc3C(=O)Nc3cccnc32)CC1 | 95.1% (inactive)
CC(O)C(C)OC(=O)[C@@H]1C[C@@H]2c3cccc4c3c(cn4C(C)C)C[C@H]2N(C)C1 (stereo not given in full) | 90.9% (inactive)
C[N+](C)(C)CCC(=O)c1cccc2ccccc12 | 0% (inactive)
CCO/C([O-])=N/c1c[n+](N2CCOCC2)no1 | 100% (inactive)
CN1CCc2cccc3c2C1Cc1ccc(O)c(O)c1-3 (stereo not given) | 0% (inactive)
COc1cc(-c2ccc(=O)[nH]n2)ccc1OC(F)F | 75.5% (inactive)
CN(C)C(=O)/N=N/C(=O)N(C)C | 110% (inactive)
Cc1nnc(SCC2=C(C(=O)O)N3C(=O)[C@@H](NC(=O)Cn4cnnn4)[C@H]3SC2)s1 | 90.8% (inactive)
Oc1ccc(O)cc1 | 128% (inactive)
CN(C)CCOC(c1ccccc1)c1ccccc1 | 86.5% (inactive)
CC(CCc1ccccc1)NCC(O)c1ccc(O)c(C(N)=O)c1 (stereo not given) | 89.9% (inactive)
NCCNC(=O)c1ncsc1-c1cccc(F)c1 | 102% (inactive)
CCCCS(=N)(=O)CC[C@H](N)C(=O)O (stereo not given in full) | 93% (inactive)
